{
  "source": "patent US20090022726A1",
  "about": "“METHOD OF USING IL6 ANTAGONISTS WITH PROTEASOME INHIBITORS” (priority 2005, published 2009)",
  "key": {"[1]": {"test_system": "IL-6-independent myeloma cell line RPMI 8226", "test": "ELISA-based apoptosis assay, antibody and bortezomib", "assay_type": "cell-based", "details": "RPMI 8226, data not shown"}, "[2]": {"test_system": "KAS-6 cells", "test": "WST-1 cell viability, antibody combined with bortezomib", "assay_type": "cell-based", "details": "KAS-6, 0.1 mcg/ml antibody pre-incubated 24 hours, then bortezomib 24 hours; relative to control antibody F105", "protocol": "(§1) ANBL-6 and KAS-6 cells (Dr. Diane Jelinek, Mayo Clinic, Rochester, Minn.) were incubated with increasing concentrations of CNTO 328 or the isotype control antibody, F105, for 24 and 48 hours. For the last 4 hours, the cells were incubated in the presence of WST-1 (Roche Applied Science, Indianapolis, Ind.). Reduction of WST-1 into a water soluble formazan salt by viable cells was measured at an absorbance of 450 nm using an ELISA plate reader. Viability was measured as percent viability relative to untreated cells. All cells were treated in RPMI 1640 media containing 10% FBS and 1 ng/mL of IL-6.\n(§2) The ANBL-6, KAS-6, or IL-6-independent RPMI 8226 myeloma cell lines were pre-incubated with 0.1 mcg/ml (KAS-6) or 10 mcg/ml (ANBL-6 and RPMI 8226) of the control antibody, F105, or CNTO 328 for 24 hours, followed by co-incubation with either DMSO control or increasing concentrations of bortezomib in the continued presence of F105 or CNTO 328 for another 24 hours. For sequencing experiments, ANBL-6 cells were treated with: 1) F105 or CNTO 328 for 24 hours followed by F105 or CNTO 328 and bortezomib 5 nM for another 24 hours (antibody→bortezomib); 2) F105 or CNTO 328 and bortezomib 5 nM concurrently for 24 hours (antibody+bortezomib), or bortezomib at 5 nM for 12 hours followed by F105 or CNTO 328 for 24 hours (bortezomib→antibody). Cell viability was assayed as described above and measured as percent viability relative to untreated cells. All cells were treated in RPMI 1640 media containing 10% FBS and 1 ng/mL of IL-6. Columns, mean of quintuplicate cultures; bars, SEM."}, "[3]": {"test_system": "IL-6-independent RPMI 8226 myeloma cell line", "test": "WST-1 cell viability, antibody combined with bortezomib", "assay_type": "cell-based", "details": "RPMI 8226, 10 mcg/ml antibody pre-incubated 24 hours, then bortezomib 24 hours", "protocol": "as §1, §2"}, "[4]": {"test_system": "ANBL-6 cells", "test": "WST-1 cell viability, antibody combined with bortezomib", "assay_type": "cell-based", "protocol": "as §1, §2"}, "[5]": {"test_system": "KAS-6 cells", "test": "ELISA-based apoptosis assay (mono- and oligo-nucleosomes), antibody and bortezomib", "assay_type": "cell-based", "details": "KAS-6, 1 mcg/ml CNTO 328 with bortezomib, 12 hours", "protocol": "(§3) ANBL-6 and KAS-6 cells were incubated with 10 mcg/ml (ANBL-6) or 1 mcg/ml (KAS-6) of CNTO 328 or the control antibody, F105, for 8 (ANBL-6) to 12 (KAS-6) hours. Apoptosis was determined using an ELISA-based assay that measures the presence of mono- and oligo-nucleosomes (Roche Applied Science, Indianapolis, Ind.) and expressed as a fold increase in apoptosis over DMSO and F105-treated controls. Cells were treated in RPMI 1640 media containing 10% FBS and 1 ng/mL of IL-6 (FIGS. 3 A and B, column height represents the mean of triplicate cultures; bars, SEM)."}, "[6]": {"test_system": "ANBL-6 cells", "test": "ELISA-based apoptosis assay (mono- and oligo-nucleosomes), antibody and bortezomib", "assay_type": "cell-based", "details": "ANBL-6, 10 mcg/ml CNTO 328 with bortezomib, 8 hours", "protocol": "as §3"}, "[7]": {"test_system": "IL-6 signaling, HSP-70 and MKP-1 in ANBL-6 cells", "test": "Immunoblot analysis of IL-6 signaling, HSP-70 and MKP-1 with densitometry", "assay_type": "cell-based", "protocol": "ANBL-6 cells were incubated with 10 mcg/ml of CNTO 328 or the control antibody, F105, with or without increasing concentrations of bortezomib for 8 hours. Cell lysates were prepared and subjected to immunoblot analysis. Blots were stripped and probed for HSC-70 to ensure equal protein loading per lane. Densitometry was performed on HSP-70 and MKP-1 immunoblots."}, "[8]": {"test_system": "KAS-6 cells", "test": "WST-1 cell viability, antibody alone", "assay_type": "cell-based", "details": "increasing concentrations, 24 and 48 hours, 1 ng/mL of IL-6", "protocol": "as §1"}, "[9]": {"test_system": "ANBL-6 cells", "test": "WST-1 cell viability, antibody alone", "assay_type": "cell-based", "details": "increasing concentrations, 24 and 48 hours, 1 ng/mL of IL-6", "protocol": "as §1"}, "[10]": {"test_system": "IL-6 signaling in KAS-6 cells", "test": "Down-regulation of IL-6 signaling (phospho-protein levels)", "assay_type": "cell-based"}, "[11]": {"test_system": "refractory or relapsed myeloma", "details": "refractory or relapsed disease, initial phase II clinical trial (Richardson et al. 2003); cited from earlier work"}, "[12]": {"test_system": "proteasome", "details": "over human leukocyte elastase, cathepsin G, chymotrypsin and thrombin; cited from earlier work"}, "[13]": {"test_system": "normal mouse embryo fibroblasts (MEFs)", "test": "Apoptosis assay, KNK437 with bortezomib", "assay_type": "cell-based", "details": "normal (HSF-1+/+) MEFs, 24 hours", "protocol": "as §3\n(§4) ANBL-6 or MEF cells (control and HSF-1−/−) were incubated with either DMSO control or increasing concentrations of bortezomib and KNK437 for 12 (ANBL-6) to 24 hours (MEFs). Apoptosis was determined as described above and expressed as a fold increase in apoptosis over DMSO-treated controls. ANBL-6 cells were treated in RPMI 1640 media containing 10% FBS and 1 ng/mL of IL-6 (FIG. 5, columns, mean of triplicate cultures; bars, SEM)."}, "[14]": {"test_system": "ANBL-6 cells", "test": "Apoptosis assay, KNK437 with bortezomib", "assay_type": "cell-based", "details": "ANBL-6, KNK437 with bortezomib, 12 hours, compared with control treated cells", "protocol": "as §3, §4"}, "[15]": {"test_system": "HSF-1 knockout MEFs", "test": "Apoptosis assay, KNK437 with bortezomib", "assay_type": "cell-based, mouse", "details": "24 hours", "protocol": "as §3, §4"}, "[16]": {"test_system": "KAS-6 cells", "test": "Apoptosis, KNK437 with bortezomib", "assay_type": "cell-based"}, "[17]": {"details": "10 mcg/ml CNTO 328 with bortezomib, 8 hours, densitometry"}, "[18]": {"details": "CNTO 328 with bortezomib, immunoblot"}},
  "note": "“Also recorded” adds a separate entry of the source.",
  "data": [
    {"compound": "CNTO 328: chimeric monoclonal IL-6 neutralizing antibody", "values": [
      {"measurement": "potentiation of apoptosis", "setting": "[1]", "value": "not able to potentiate apoptosis"},
      {"measurement": "effect on cytotoxicity of bortezomib (cell viability)", "setting": "[2]", "value": "potentiated the cytotoxicity of bortezomib"},
      {"measurement": "effect on activity of bortezomib (cell viability)", "setting": "[3]", "value": "did not enhance the activity of bortezomib"},
      {"measurement": "effect on cytotoxicity of bortezomib (cell viability)", "setting": "[4]; ANBL-6, 10 mcg/ml antibody pre-incubated 24 hours, then bortezomib 24 hours, relative to control antibody F105", "value": "potentiated the cytotoxicity of bortezomib"},
      {"measurement": "effect on cytotoxicity of bortezomib, sequencing", "setting": "[4]; ANBL-6, antibody 24 hours followed by antibody and bortezomib 5 nM 24 hours (antibody→bortezomib)", "value": "enhanced the cytotoxicity of bortezomib most"},
      {"measurement": "effect on cytotoxicity of bortezomib, sequencing", "setting": "[4]; ANBL-6, antibody and bortezomib 5 nM concurrently for 24 hours (antibody+bortezomib)", "value": "enhanced the cytotoxicity of bortezomib most"},
      {"measurement": "effect on cytotoxicity of bortezomib, sequencing", "setting": "[4]; ANBL-6, bortezomib 5 nM 12 hours followed by antibody 24 hours (bortezomib→antibody)", "value": "little additional effect"},
      {"measurement": "induction of apoptosis (fold increase over DMSO and F105-treated controls)", "setting": "[5]", "value": "enhanced induction of apoptosis; also recorded: greater than the sum of the two individual agents alone"},
      {"measurement": "induction of apoptosis (fold increase over DMSO and F105-treated controls)", "setting": "[6]", "value": "enhanced induction of apoptosis; also recorded: greater than the sum of the two individual agents alone"},
      {"measurement": "decrease of bortezomib-mediated induction of HSP-70", "setting": "[7]; [17]", "value": 45, "unit": "%"},
      {"measurement": "decrease of bortezomib-mediated induction of MKP-1", "setting": "[7]; [17]", "value": 90, "unit": "%"},
      {"measurement": "levels of phospho-STAT-3", "setting": "[7]; 8 hours, immunoblot", "value": "reduction in levels"},
      {"measurement": "levels of phospho-p42/44 MAPK", "setting": "[7]; 8 hours, immunoblot", "value": "reduction in levels"},
      {"measurement": "levels of hyperphosphorylated HSF-1", "setting": "[7]; [18]", "value": "decreased levels"},
      {"measurement": "levels of transcriptionally active phospho-STAT-1", "setting": "[7]; [18]", "value": "decreased levels"},
      {"measurement": "cell viability (percent viability relative to untreated cells)", "setting": "[8]", "value": "dose- and time-dependent reduction in cell viability"},
      {"measurement": "cell viability (percent viability relative to untreated cells)", "setting": "[9]", "value": "dose- and time-dependent reduction in cell viability"},
      {"measurement": "phospho-STAT-3 and phospho-p42/44 MAPK levels", "setting": "[10]", "value": "marked decrease"}
    ]},
    {"compound": "CC(C)C[C@H](NC(=O)[C@H](Cc1ccccc1)NC(=O)c1cnccn1)B(O)O", "note": "[bortezomib, reference compound]", "values": [
      {"measurement": "patients with partial responses or better", "setting": "[11]", "value": 27, "unit": "%"},
      {"measurement": "levels of phospho-STAT-3", "setting": "[7]; 8 hours, immunoblot", "value": "decreased levels"},
      {"measurement": "levels of phospho-p42/44 MAPK", "setting": "[7]; 8 hours, immunoblot", "value": "decreased levels"},
      {"measurement": "selectivity for the proteasome over other serine proteases", "setting": "[12]", "value": "> 500", "unit": "fold"}
    ]},
    {"compound": "O=CN1CC/C(=C\\c2ccc3c(c2)OCO3)C1=O", "note": "[KNK437]", "values": [
      {"measurement": "synergistic activity with bortezomib (apoptosis)", "setting": "[13]", "value": "reproduced"},
      {"measurement": "bortezomib-mediated apoptosis (fold increase over DMSO-treated controls)", "setting": "[14]", "value": "significant increase in bortezomib-mediated apoptosis"},
      {"measurement": "synergistic activity with bortezomib (apoptosis)", "setting": "[15]", "value": "blunted"},
      {"measurement": "apoptotic activity of bortezomib", "setting": "[16]", "value": "enhanced the apoptotic activity of bortezomib"}
    ]}
  ]
}
